The term EC50 denotes the concentration that produces a half-maximal response.

One compound from patent publication US12551482B2, “Aurora kinase inhibitors” (The Regents of the University of California, priority 2013, dated 2026) can be followed below.

What all share (experiment): Cancer cell line profiling, Genomics of Drug Sensitivity Project
For assay [1], the system named is MKN28. To be noted: Homo sapiens, MKN-28, read-out: CD532 EC50 (uM).
In assay [2] the test system is PE/CA-PJ15. Conditions: read-out: CD532 EC50 (uM).
The subject of assay [3] is RPMI 2650. Conditions: Homo sapiens, RPMI-2650, read-out: CD532 EC50 (uM).
The subject of assay [4] is JHH-4. Conditions: JHH-4, read-out: CD532 EC50 (uM).
The test system of assay [5] is JHH-2. To be noted: JHH-2, read-out: CD532 EC50 (uM).
For assay [6], the system named is NB10. Conditions: read-out: CD532 EC50 (uM).
For assay [7], the system named is HPAC. Conditions: Homo sapiens, read-out: CD532 EC50 (uM).
Assay [8] concerns Hs, 766T. To be noted: Hs766T, read-out: CD532 EC50 (uM).

As for `O=C(Nc1ccc(Nc2nccc(Nc3cc(C4CCCC4)[nH]n3)n2)cc1)Nc1cccc(C(F)(F)F)c1` [CD532, 1-(4-((4-((5-cyclopentyl-1H-pyrazol-3-yl)amino)pyrimidin-2-yl)amino)phenyl)-3-(3-(trifluoromethyl)phenyl)urea], the 50% effective concentration (EC50) was 10.1 µM in assay [1]; 1.9 µM in assay [2]; 0.412 µM in assay [3]; 1.35 µM in assay [4]; 0.543 µM in assay [5]; 0.275 µM in assay [6]. The 50% effective concentration (EC50) in assay [7] was 2.5 µM; in assay [8], 2.45 µM.
